Experiments:
SOS1 = SOS1 (Homo sapiens (Human), UniProt Q07889); test: Ras-SOS interaction assay (HTRF), K-Ras G13D utilized; assay type: binding; conditions: K-Ras G13D, read-out: SOS1 IC50
[1] = tested on: NCI-H1975 (ATCC CRL-5908) cell line comprising an EGFR T790M L858R double mutation; test: EGFR-SOS cellular inhibition assay (CellTiter-Glo cell proliferation); assay type: cell-based; conditions: Homo sapiens, 120 h; NCI-H1975 cell proliferation, approximately 5 days; read-out: H1975 IC50
Experimental: A CellTiter-Glo (CTG) luminescent based assay (Promega) is used to assess growth of the cells, as a measurement of the ability of the compounds herein to inhibit EGFR signaling in the cells. […] The day after plating, cells are treated with a dilution series (e.g., a 9 point 3-fold dilution series) of the compounds herein (e.g., approximately 125 μL final volume per well).

Sequence of SOS1 (Q07889 564-1049): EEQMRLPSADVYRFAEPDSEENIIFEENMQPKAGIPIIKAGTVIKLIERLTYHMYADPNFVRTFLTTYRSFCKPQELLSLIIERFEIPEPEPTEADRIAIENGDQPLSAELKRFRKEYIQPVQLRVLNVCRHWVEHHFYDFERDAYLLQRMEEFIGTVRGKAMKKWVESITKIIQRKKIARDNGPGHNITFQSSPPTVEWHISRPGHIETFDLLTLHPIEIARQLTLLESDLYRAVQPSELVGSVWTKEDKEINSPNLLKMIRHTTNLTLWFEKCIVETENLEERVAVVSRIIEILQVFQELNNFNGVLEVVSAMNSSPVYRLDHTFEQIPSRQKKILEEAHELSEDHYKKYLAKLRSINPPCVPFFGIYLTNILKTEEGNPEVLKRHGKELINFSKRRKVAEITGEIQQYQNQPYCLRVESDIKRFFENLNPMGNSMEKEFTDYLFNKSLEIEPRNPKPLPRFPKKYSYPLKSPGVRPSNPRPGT

Row | Compound | IC50 (SOS1) [nM] | IC50 [1] [nM]
1 | CC(C)N1CCC(c2cc3c4ncnc3n(c2=O)CCCCCCN2CCC(CC2)CC(F)(F)c2cccc(c2F)[C@@H](C)N4)CC1 [Compound 140, (3R)-4^2,5,5-trifluoro-1^6-(1-isopropylpiperidin-4-yl)-3-methyl-1^7,1^8-dihydro-2-aza-1(4,8)-pyrido[2,3-d]pyrimidina-7(4,1)-piperidina-4(1,3)-benzenacyclotridecaphan-1^7-one] | < 100 | < 1000
2 | Cc1nnc2c3cc(N4CCOCC4)nc(c13)OCCCCCCN1CCC(CC1)C(F)(F)c1cccc(c1)[C@@H](C)N2 [Compound 141, (R)-2,2-difluoro-6^4,4-dimethyl-6^7-morpholino-7-oxa-5-aza-6(1,5)-pyrido[3,4-d]pyridazina-1(4,1)-piperidina-3(1,3)-benzenacyclotridecaphane] | < 100 | < 1000
3 | C[C@H]1Nc2ncnc3c2cc(C2(C#N)CC2)c(=O)n3CCCNC(=O)CCN2CCC(CC2)C(F)(F)c2cccc1c2 [Compound 144, 1-((4R)-2,2-difluoro-4-methyl-6^7,11-dioxo-6^7,6^8-dihydro-5,10-diaza-6(4,8)-pyrido[2,3-d]pyrimidina-1(4,1)-piperidina-3(1,3)-benzenacyclotridecaphane-6^6-yl)cyclopropane-1-carbonitrile] | < 100 | < 1000
4 | C[C@H]1Nc2ncnc3c2cc(C2(C#N)CC2)c(=O)n3CCCCNC(=O)CN2CCC(CC2)C(F)(F)c2cccc1c2F [Compound 147, 1-((4R)-3^2,2,2-trifluoro-4-methyl-6^7,12-dioxo-6^7,6^8-dihydro-5,11-diaza-6(4,8)-pyrido[2,3-d]pyrimidina-1(4,1)-piperidina-3(1,3)-benzenacyclotridecaphane-6^6-yl)cyclopropane-1-carbonitrile] | < 100 | < 1000
5 | CC(C)N1CCC(c2cc3c4ncnc3n(c2=O)CCCC/C=C/CN2CCC(CC2)C(F)(F)c2cccc(c2)[C@@H](C)N4)CC1 [Compound 149, (4R,E)-2,2-difluoro-6^6-(1-isopropylpiperidin-4-yl)-4-methyl-6^7,6^8-dihydro-5-aza-6(4,8)-pyrido[2,3-d]pyrimidina-1(4,1)-piperidina-3(1,3)-benzenacyclotridecaphan-11-en-6^7-one] | < 100 | < 1000
6 | C[C@H]1Nc2ncnc3c2cc(C2CCS(=O)(=O)CC2)c(=O)n3CCCCCN2CCC(CC2)CCC(F)(F)c2cccc1c2F [Compound 151, (3R)-1^6-(1,1-dioxidotetrahydro-2H-thiopyran-4-yl)-4^2,5,5-trifluoro-3-methyl-1^7,1^8-dihydro-2-aza-1(4,8)-pyrido[2,3-d]pyrimidina-8(4,1)-piperidina-4(1,3)-benzenacyclotridecaphan-1^7-one] | < 100 | < 1000
7 | C[C@H]1Nc2ncnc3c2cc(C2(C#N)CC2)c(=O)n3CCCCNC(=O)[C@H](C)N2CCC(CC2)C(F)(F)c2cccc1c2 [Compound 153, 1-((4R,13S)-2,2-difluoro-4,13-dimethyl-6^7,12-dioxo-6^7,6^8-dihydro-5,11-diaza-6(4,8)-pyrido[2,3-d]pyrimidina-1(4,1)-piperidina-3(1,3)-benzenacyclotridecaphane-6^6-yl)cyclopropane-1-carbonitrile] | < 100 | < 1000
8 | CC(C)N1CCN(c2cc3c4ncnc3n(c2=O)CCCCCN2CCC(CC2)CCC(F)(F)c2cccc(c2)[C@@H](C)N4)CC1 [Compound 154, (3R)-5,5-difluoro-1^6-(4-isopropylpiperazin-1-yl)-3-methyl-1^7,1^8-dihydro-2-aza-1(4,8)-pyrido[2,3-d]pyrimidina-8(4,1)-piperidina-4(1,3)-benzenacyclotridecaphan-1^7-one] | < 100 | < 1000
9 | C[C@H]1Nc2ncnc3c2cc(C2CCS(=O)(=O)CC2)c(=O)n3CCCCCCN2CCC(CC2)CC(F)(F)c2cccc1c2F [Compound 156, (3R)-1^6-(1,1-dioxidothiomorpholino)-4^2,5,5-trifluoro-3-methyl-1^7,1^8-dihydro-2-aza-1(4,8)-pyrido[2,3-d]pyrimidina-7(4,1)-piperidina-4(1,3)-benzenacyclotridecaphan-1^7-one] | < 100 | < 1000

Source: patent publication US20230339952A1, “MACROCYCLIC HETEROCYCLES AND USES THEREOF” (Kumquat Biosciences Inc., priority 2022, published 2023)
